{"source": "patent US20080171710A1", "about": "“The Redox/Fyn/c-Cbl Pathway” (priority 2007, published 2008)", "key": {"EGFR": {"tested_on": "EGFR", "type": "cell-based, rat", "in_short": "(§1)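 Western blot of cell lysates or sonicated tissue in RAPI buffer, SDS-PAGE to PVDF, primary antibodies (phospho-Erk, phospho-Akt, receptor, phospho-tyrosine), HRP secondary and luminol detection. Signaling analysed in presence of the cognate ligand: EGF for EGFR, NT-3 for TrkC, HGF for c-Met.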"}, "c-Met": {"tested_on": "c-Met", "type": "cell-based, rat", "in_short": "as §1"}, "PDGFRα [1]": {"tested_on": "PDGFRα", "assay": "PDGFRα phosphorylation (Western blot, anti-PDGFRα(pY742))", "type": "cell-based, rat", "description": "The cells were then collected and lysed for Western blotting. […] Cells were lysed for Western blot analysis using anti-PDGFRα(pY742) antibody. The membranes were de-probed and then re-probed with antibody against total PDGFRα and anti-β-tubulin antibody. […]\nAnti-phosphorylated Erk monoclonal, anti-Erk monoclonal, anti-TrkC polyclonal anti-Fyn polyclonal, anti-EGFR polyclonal, anti-c-Met polyclonal, anti-phospho-tyrosine monoclonal, and anti-PDGFRα polyclonal antibodies were obtained from Santa Cruz Biotechnology (Santa Cruz, Calif., United States). Anti-c-Cbl monoclonal antibody was obtained from BD PharMingen (San Diego, Calif., United States). Anti-phosphorylated Akt monoclonal and anti-Akt polyclonal antibodies were obtained from Cell Signaling Technology (Beverly, Mass., United States). Anti-phosphorylated PDGPRα polyclonal antibody was obtained from Biosource (Carlsbad, Calif., United States). The cell culture samples were collected and lysed in RAPI buffer, whereas dissected tissue samples were sonicated in RAPI buffer. Samples were resolved on SDS-PAGE gels and transferred to PVDF membranes (PerkinElmer Life Science. Wellesley, Mass., United States), After being blocked in 5% skim milk in PBS containing 0.1% Tween 20, membranes were incubated with a primary antibody, followed by incubation with an HRP-conjugated secondary antibody (Santa Cruz Biotechnology). Membranes were visualized using Western Blotting Luminol Reagent (Santa Cruz Biotechnology). All analyses of signaling pathway components were conducted in the presence of ligand for the receptor pathway under analysis (either PDGF-AA for PDGFRα, NT-3 or TrkC, HGF for c-Met, or EGF for EGFR)."}, "O-2A/OPCs [2]": {"tested_on": "O-2A/OPCs", "assay": "Clonal analysis of division and differentiation", "type": "cell-based, rat", "protocol": "O-2A/OPCs purified from P7 rat optic nerve were plated in. poly-L-lysine-coated 25-cm^2 flasks at clonal density with DMBM medium in the presence of 10-ng/ml PDGF as previously described. After 24-h recovery, cells were treated with different toxicants, each for 3 d, until visual inspection and immunostaining was performed. NAC was added 1 h before exposure to other toxicants for NAC pretreatment, and NAC co-exists throughout the culture period. The numbers of O-2A/OPCs and oligodendrocytes in each clone were determined by counting under fluorescent microscope. […] Experiments were performed in triplicate in at least two independent experiments."}, "PDGFRα [3]": {"tested_on": "PDGFRα", "type": "cell-based, rat"}, "Fyn": {"molecular_target": "T1, Fyn (Rattus norvegicus, UniProt Q62844)", "T1 construct": "250 μg of total cell lysates were immunoprecipitated with anti-Fyn antibody; endogenous in cells; host or cells: primary rat O-2A/OPCs", "T1 sequence (Q62844 whole entry)": "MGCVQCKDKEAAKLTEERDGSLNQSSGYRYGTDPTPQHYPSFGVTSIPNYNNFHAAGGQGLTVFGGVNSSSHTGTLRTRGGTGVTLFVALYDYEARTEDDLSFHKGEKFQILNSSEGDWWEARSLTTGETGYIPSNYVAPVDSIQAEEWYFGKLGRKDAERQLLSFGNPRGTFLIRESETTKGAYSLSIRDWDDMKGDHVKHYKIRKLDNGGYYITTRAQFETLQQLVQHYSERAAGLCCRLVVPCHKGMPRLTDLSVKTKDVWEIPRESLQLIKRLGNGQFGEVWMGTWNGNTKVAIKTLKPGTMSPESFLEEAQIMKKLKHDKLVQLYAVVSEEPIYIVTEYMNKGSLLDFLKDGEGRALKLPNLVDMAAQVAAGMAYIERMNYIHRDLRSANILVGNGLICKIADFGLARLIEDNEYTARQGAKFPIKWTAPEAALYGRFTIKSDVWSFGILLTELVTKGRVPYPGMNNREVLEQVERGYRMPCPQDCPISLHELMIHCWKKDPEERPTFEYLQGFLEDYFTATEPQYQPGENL", "type": "cell-based", "in_short": "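Rat O-2A/OPC lysates (250 μg total protein) immunoprecipitated with anti-Fyn antibody. Washed Fyn immune complexes assayed for tyrosine kinase activity with a universal tyrosine kinase kit.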"}, "Akt": {"tested_on": "Akt", "type": "cell-based, rat", "in_short": "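Cells deprived of PDGF-AA for 5 h, then re-exposed to PDGF-AA (10 ng/ml) for 1 h. Lysates in RIPA buffer resolved by SDS-PAGE and immunoblotted with phospho-specific and total Akt or Erk antibodies, detected by HRP chemiluminescence.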"}, "Erk1/2": {"tested_on": "Erk1/2", "type": "cell-based, rat"}, "O-2A/OPCs [4]": {"tested_on": "O-2A/OPCs", "assay": "In vitro BrdU incorporation assay", "type": "cell-based, rat", "in_short": "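Surface antigens stained on live or 2% paraformaldehyde-fixed cells; intracellular ones after ice-cold methanol (4 min) or 0.5% Triton (15 min). Fluorescent secondary antibodies applied for 20 min.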"}, "c-Cbl": {"tested_on": "c-Cbl", "type": "cell-based, rat", "in_short": "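Pre-cleared cell lysates (250 μg total protein) immunoprecipitated with anti-c-Cbl or anti-PDGFRα antibody (2 h, 4° C), then protein A/G agarose overnight at 4° C. Precipitates run on 8% SDS-PAGE and Western blotted with anti-p-Tyr (c-Cbl phosphorylation) or anti-ubiquitin (PDGFR ubiquitylation).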"}, "SRE-luciferase reporter": {"tested_on": "SRE-luciferase reporter", "assay": "SRE-luciferase reporter assay", "type": "cell-based, rat", "protocol": "Cells were deprived of PDGF-AA for 5 h before re-exposure to PDGF-AA (10 ng/ml) for 1 h for Western blot or 6 h for luciferase assays of pathway activation. Transient transfection was performed using Fugene6 (Roche, Basel, Switzerland ) transfection solution according to the manufacturer's protocol. For the luciferase assay, cells seeded in 12-well plates were transfected with a reporter plasmid SRE-Luc(firefly) or NF-κB-Luc(firefly) (BD-Clontech, Palo Alto, Calif., United States) and an internal control plasmid pRLSV40-LUC. Analyses of luciferase activity were performed according to the protocol of the Dual Luciferase Assay System (Promega, Madison, Wis., United States), which uses an internal control of Renilla luciferase for quantification, and relative light units were measured using a luminometer."}, "[5]": {"details": "30 nM MeHg, 1 μM Pb, 5 μM paraquat"}, "[6]": {"details": "NAC 1 mM, PP1 100 nM or ICI 182,780 200 nM with TMX"}, "[7]": {"details": "1 mM NAC in the absence of toxicants"}, "[8]": {"details": "added 1 h before Pb or paraquat"}}, "data": [{"smiles": "[CH3][Hg][Cl]", "note": "[MeHg, methylmercury]", "values": [{"measurement": "levels of EGFR after toxicant exposure", "setting": "EGFR; MeHg, Pb or paraquat", "result": "reductions"}, {"measurement": "levels of c-Met after toxicant exposure", "setting": "c-Met; MeHg, Pb or paraquat", "result": "reductions"}, {"measurement": "phosphorylation of PDGFRα after toxicant exposure", "setting": "PDGFRα [1]; [5]", "result": "also reduced"}, {"measurement": "clone composition (cell division at the clonal level)", "setting": "O-2A/OPCs [2]; MeHg exposure, PDGF", "result": "reduction in the number of large clones and an increase in the number of small clones"}, {"measurement": "PDGFRα loss in the presence of cycloheximide", "setting": "PDGFRα [3]; MeHg 20 nM plus cycloheximide, versus cycloheximide alone", "result": "further accelerated receptor loss"}, {"measurement": "total levels of PDGFRα after toxicant exposure", "setting": "PDGFRα [3]; MeHg 30 nM, 1 μM Pb, 5 μM paraquat", "result": "reduction in levels of the PDGFRα itself"}, {"measurement": "Fyn activation after toxicant exposure", "setting": "Fyn; [5]", "result": "stimulated Fyn activation"}, {"measurement": "PDGF-induced Akt phosphorylation", "setting": "Akt; 30 nM MeHg, 24 h", "result": "decreased"}, {"measurement": "NT-3-induced Erk1/2 phosphorylation", "setting": "Erk1/2; 30 nM MeHg", "result": "no reduction in Erk1/2 phosphorylation"}, {"measurement": "PDGF-induced Erk1/2 phosphorylation after toxicant exposure", "setting": "Erk1/2; 30 nM MeHg 24 h, 1 μM Pb, 5 μM paraquat", "result": "reduced ERK1/2 phosphorylation"}, {"measurement": "drop in the percentage of O-2A/OPCs incorporating BrdU", "setting": "O-2A/OPCs [4]; 20 nM MeHg, stimulation with PDGF", "result": "approximately 25%"}, {"measurement": "c-Cbl phosphorylation after toxicant exposure", "setting": "c-Cbl; [5]", "result": "stimulated"}, {"measurement": "NT-3-induced expression from SRE-luciferase reporter", "setting": "SRE-luciferase reporter; 30 nM MeHg", "result": "no reduction in NT-3-induced expression"}, {"measurement": "PDGF-induced SRE-luciferase reporter expression", "setting": "SRE-luciferase reporter; 30 nM MeHg, 24 h", "result": "reduced expression"}]}, {"smiles": "CC(=O)N[C@@H](CS)C(=O)O", "note": "[NAC, N-acetyl-L-cysteine]", "values": [{"measurement": "effect on EtOH-induced reduction of EGFR levels", "setting": "EGFR; NAC added 1 hr before EtOH", "result": "substantial rescue"}, {"measurement": "effect on toxicant-associated reductions in EGFR levels", "setting": "EGFR; NAC with MeHg, Pb, or paraquat", "result": "protected"}, {"measurement": "effect on EtOH-induced reduction of c-Met levels", "setting": "c-Met; NAC added 1 hr before EtOH", "result": "substantial rescue"}, {"measurement": "effect on toxicant-associated reductions in c-Met levels", "setting": "c-Met; NAC with MeHg, Pb, or paraquat", "result": "protected"}, {"measurement": "effect on MeHg-induced suppression of PDGFRα phosphorylation", "setting": "PDGFRα [1]; co-exposure with MeHg", "result": "rescued"}, {"measurement": "effect on MeHg-induced suppression of cell division at the clonal level", "setting": "O-2A/OPCs [2]; co-exposure with MeHg, 1 mM NAC or PP1", "result": "blocked"}, {"measurement": "effect on TMX-induced reductions in levels of PDGFRα", "setting": "PDGFRα [3]; [6]", "result": "blocked"}, {"measurement": "effect on EtOH-induced reduction of PDGFRα levels", "setting": "PDGFRα [3]; NAC added 1 hr before EtOH", "result": "substantial rescue"}, {"measurement": "effect on Aβ-induced reduction in PDGFRα levels", "setting": "PDGFRα [3]; co-exposure with Aβ", "result": "blocked"}, {"measurement": "effect on MeHg-induced reductions in levels of PDGFRα", "setting": "PDGFRα [3]; together with MeHg", "result": "prevented"}, {"measurement": "effect on Pb- and paraquat-induced reductions in levels of PDGFRα", "setting": "PDGFRα [3]; together with Pb (1 μM) or paraquat (5 μM)", "result": "protected"}, {"measurement": "effect on basal Fyn activity", "setting": "Fyn; [7]", "result": "only a slight, insignificant effect"}, {"measurement": "effect on TMX-induced activation of Fyn", "setting": "Fyn; [6]", "result": "blocked"}, {"measurement": "effect on MeHg-induced Fyn activation", "setting": "Fyn; added 1 h before MeHg", "result": "blocked"}, {"measurement": "effect on Pb- and paraquat-induced Fyn activation", "setting": "Fyn; [8]", "result": "blocked"}, {"measurement": "effect on EtOH suppression of Akt phosphorylation", "setting": "Akt; 1 mM NAC with EtOH", "result": "rescued"}, {"measurement": "effect on MeHg suppression of Akt phosphorylation", "setting": "Akt; 1 mM NAC with MeHg", "result": "rescued"}, {"measurement": "effect on EtOH suppression of Erk1/2 phosphorylation", "setting": "Erk1/2; 1 mM NAC with EtOH", "result": "rescued"}, {"measurement": "effect on Aβ(1-42) suppression of PDGF-mediated Erk1/2 phosphorylation", "setting": "Erk1/2; co-exposure with Aβ(1-42)", "result": "blocked"}, {"measurement": "effect on MeHg-associated suppression of Erk1/2 phosphorylation", "setting": "Erk1/2; co-treatment with MeHg", "result": "rescued"}, {"measurement": "effect on Pb and paraquat effects on Erk1/2 phosphorylation", "setting": "Erk1/2; co-treatment with Pb or paraquat", "result": "protected"}, {"measurement": "effect on TMX effect on cell proliferation", "setting": "O-2A/OPCs [4]; with TMX, 2 days", "result": "blocked"}, {"measurement": "effect on levels of c-Cbl phosphorylation without toxicant", "setting": "c-Cbl; [7]", "result": "did not have any marked effect"}, {"measurement": "effect on TMX-induced activation of c-Cbl", "setting": "c-Cbl; [6]", "result": "blocked"}, {"measurement": "effect on MeHg-induced c-Cbl phosphorylation", "setting": "c-Cbl; added 1 h before MeHg", "result": "blocked"}, {"measurement": "effect on Pb- and paraquat-induced c-Cbl phosphorylation", "setting": "c-Cbl; [8]", "result": "blocked"}, {"measurement": "effect on Aβ-induced increase in phosphorylated c-Cbl", "setting": "c-Cbl; co-exposure with Aβ", "result": "blocked"}, {"measurement": "effect on MeHg suppression of SRE reporter activity", "setting": "SRE-luciferase reporter; 1 mM NAC with MeHg", "result": "rescued normal level"}]}]}
